US12428406B2 (PMV Pharmaceuticals, Inc., priority 2019, dated 2025)

These molecules were tested against T1, p53 Y220C (Homo sapiens, UniProt P04637, Y220C) (assay: In vitro DNA binding activity assay (HTRF / TR-FRET): stabilization of p53 Y220C and increase of its DNA binding activity). Details: recombinant His-tagged p53 Y220C DNA binding domain (aa 94-312), biotin-labeled consensus DNA, incubated at 27° C. or 29° C. for 60 min.
T1 construct: The recombinant protein was a truncation mutant containing only amino acids 94-312 of p53; made in house; host or cells: E. coli
Assay type: biochemical
Summary of the method: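 E. coli His-p53 Y220C + biotin consensus DNA; anti-His-APC/SA-Eu TR-FRET. SC150 vs no-compound.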

T1 sequence (P04637 94-312, change not shown): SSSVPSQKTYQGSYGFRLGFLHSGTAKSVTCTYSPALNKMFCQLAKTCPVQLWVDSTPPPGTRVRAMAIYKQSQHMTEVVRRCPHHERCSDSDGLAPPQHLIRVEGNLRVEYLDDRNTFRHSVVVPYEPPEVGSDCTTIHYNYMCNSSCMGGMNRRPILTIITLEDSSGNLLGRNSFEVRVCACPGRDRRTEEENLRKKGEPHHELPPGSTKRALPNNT

SMILES	SC150 (concentration of the compound required to increase the DNA binding activity by 50%)
COc1cc(S(C)(=O)=O)ccc1NCC#Cc1cc2c(N[C@H]3CC[C@H](N4CCOCC4)CC3)cccc2n1CC(F)F [Compound 180A, 1-(2,2-difluoroethyl)-2-{3-[(4-methane-sulfonyl-2-methoxy-phenyl)amino]prop-1-yn-1-yl}-N-[(1R,4R)-4-(morpholin-4-yl)cyclo-hexyl]-1H-indol-4-amine]	+ (+ = 0 μM ≤ SC150 < 0.05 μM)
COc1cc(-c2ncco2)ccc1NCC#Cc1cc2c(NC3CCN(C)CC3)cccc2n1CC(F)(F)F [Compound 506A, 2-(3-{[2-methoxy-4-(1,3-oxazol-2-yl)phenyl]amino}prop-1-yn-1-yl)-N-(1-methylpiperidin-4-yl)-1-(2,2,2-trifluoroethyl)-1H-indol-4-amine]	+ (+ = 0 μM ≤ SC150 < 0.05 μM)
COCC(O)CN1CCC(Nc2cccc3c2cc(C#CCNc2ccc(S(N)(=O)=O)cc2OC)n3CC(F)(F)F)CC1 (centres unmarked) [Compound 574A, 4-{[3-(4-{[1-(2-hydroxy-3-methoxypropyl)piperidin-4-yl]amino}-1-(2,2,2-trifluoroethyl)-1H-indol-2-yl)prop-2-yn-1-yl]amino}-3-methoxybenzene-1-sulfonamide]	+ (+ = 0 μM ≤ SC150 < 0.05 μM)
COc1cc(S(=O)(=O)N2CCN(C(C)=O)CC2)ccc1NCC#Cc1cc2c(NC3CCS(=O)(=O)CC3)cccc2n1CC(F)(F)F [Compound 1045A, 4-({2-[3-({4-[(4-acetylpiperazin-1-yl)sulfonyl]-2-methoxyphenyl}amino)prop-1-yn-1-yl]-1-(2,2,2-trifluoroethyl)-1H-indol-4-yl}amino)-1λ^6-thiane-1,1-dione]	+ (+ = 0 μM ≤ SC150 < 0.05 μM)
COCCN(C)[C@H]1CC[C@H](Nc2cccc3c2cc(C#CCNc2ccc(S(N)(=O)=O)cc2OCF)n3CC(F)(F)F)CC1 [Compound 168A, 3-(fluoromethoxy)-4-{[3-(4-{[(1R,4R)-4-[(2-methoxyethyl)(methyl)amino]cyclohexyl]amino}-1-(2,2,2-trifluoro-ethyl)-1H-indol-2-yl)prop-2-yn-1-yl]amino}benzene-1-sulfonamide]	+ (+ = 0 μM ≤ SC150 < 0.05 μM)
COCC(O)CN1CCC(Nc2cccc3c2cc(C#CCNc2ccc(S(C)(=O)=O)cc2OC(F)F)n3CC(F)(F)F)CC1 (centres unmarked) [Compound 668A, 1-(4-{[2-(3-{[2-(difluoromethoxy)-4-methanesulfonylphenyl]amino}prop-1-yn-1-yl)-1-(2,2,2-trifluoroethyl)-1H-indol-4-yl]amino}piperidin-1-yl)-3-methoxypropan-2-ol]	+ (+ = 0 μM ≤ SC150 < 0.05 μM)
COc1cc(S(C)(=O)=O)ccc1NCC#Cc1cc2c(N[C@H]3CC[C@H](N4CC5CC(C4)O5)CC3)cccc2n1CC(F)(F)F [Compound 398A, 2-{3-[(4-methanesulfonyl-2-methoxyphenyl)amino]prop-1-yn-1-yl}-N-[(1R,4R)-4-{6-oxa-3-azabicyclo[3.1.1]heptan-3-yl}cyclohexyl]-1-(2,2,2-trifluoroethyl)-1H-indol-4-amine]	+ (+ = 0 μM ≤ SC150 < 0.05 μM)
COc1cc(S(N)(=O)=O)ccc1NCC#Cc1cc2c(NC3CCN(CC(COC(=O)C(C)C)OC(=O)C(C)C)CC3)cccc2n1CC(F)(F)F (centres unmarked) [Compound 589A, 1-{4-[(2-{3-[(2-methoxy-4-sulfamoylphenyl)amino]prop-1-yn-1-yl}-1-(2,2,2-trifluoroethyl)-1H-indol-4-yl)amino]piperidin-1-yl}-3-[(2-methylpropanoyl)oxy]propan-2-yl 2-methylpropanoate]	++ (++ = 0.05 μM ≤ SC150 < 0.1 μM)
COc1cc(S(C)(=O)=O)ccc1NCC#Cc1cc2c(N[C@@H]3CC[C@H](N)C[C@H]3F)cccc2n1CC(F)(F)F [Compound 936A]	+ (+ = 0 μM ≤ SC150 < 0.05 μM)
CNc1cc(S(C)(=O)=O)ccc1OCC#Cc1cc2c(NC3CCN(CC(O)COC)CC3)cccc2n1CC(F)(F)F (stereo not drawn) [Compound 651A, l-{4-[(2-{3-[4-methanesulfonyl-2-(methylamino)phenoxy]prop-1-yn-1-yl}-1-(2,2,2-trifluoroethyl)-1H-indol-4-yl)amino]piperidin-1-yl}-3-methoxypropan-2-ol]	+ (+ = 0 μM ≤ SC150 < 0.05 μM)
COc1cc(S(C)(=O)=O)ccc1NCC#Cc1cc2c(N[C@H]3CCN(C(C)=O)[C@@H](C)C3)cccc2n1CC(F)(F)F (stereo in doubt) [Compound 739A, 1-{4-[(2-{3-[(4-methanesulfonyl-2-methoxyphenyl)amino]prop-1-yn-1-yl}-1-(2,2,2-trifluoroethyl)-1H-indol-4-yl)amino]-2-methylpiperidin-1-yl}ethan-1-one]	+ (+ = 0 μM ≤ SC150 < 0.05 μM)
COc1cc(S(C)(=O)=O)ccc1NCC#Cc1cc2c(N[C@H]3CCN(C[C@@H](C)O)C[C@H]3F)cccc2n1CC(F)(F)F [Compound 894A, 1-[(3R,4S)-3-fluoro-4-[(2-{3-[(4-methanesulfonyl-2-methoxyphenyl)amino]prop-1-yn-1-yl}-1-(2,2,2-trifluoroethyl)-1H-indol-4-yl)amino]piperidin-1-yl]propan-2-ol]	+ (+ = 0 μM ≤ SC150 < 0.05 μM)
COCC(=O)N1CC[C@@H](Nc2cccc3c2cc(C#CCNc2ccc(S(C)(=O)=O)cc2OC)n3CC(F)(F)F)[C@@H](F)C1 [Compound 866A, 1-[(3S,4R)-3-fluoro-4-[(2-{3-[(4-methanesulfonyl-2-methoxyphenyl)amino]prop-1-yn-1-yl}-1-(2,2,2-trifluoroethyl)-1H-indol-4-yl)amino]piperidin-1-yl]-2-methoxyethan-1-one]	+ (+ = 0 μM ≤ SC150 < 0.05 μM)
COc1cc(S(C)(=O)=O)ccc1NCC#Cc1cc2c(N[C@H]3CC[C@H](N4CCCC4)CC3)cccc2n1CC(F)(F)F [Compound 424A, 2-{3-[(4-methane-sulfonyl-2-methoxy-phenyl)amino]prop-1-yn-1-yl}-N-[(1R,4R)-4-(pyrrolidin-1-yl)cyclohexyl]-1-(2,2,2-trifluoroethyl)-1H-indol-4-amine]	+ (+ = 0 μM ≤ SC150 < 0.05 μM)
NS(=O)(=O)c1ccc(NCC#Cc2cc3c(N[C@H]4CC[C@H](N5CCC6(CC5)COC6)CC4)cccc3n2CC(F)(F)F)c(OCF)c1 [Compound 381A, 3-(fluoromethoxy)-4-{[3-(4-{[(1R,4R)-4-{2-oxa-7-azaspiro[3.5]nonan-7-yl}cyclohexyl]amino}-1-(2,2,2-trifluoroethyl)-1H-indol-2-yl)prop-2-yn-1-yl]amino}benzene-1-sulfonamide]	+ (+ = 0 μM ≤ SC150 < 0.05 μM)

Now from value to molecule:

SC150 (concentration of the compound required to increase the DNA binding activity by 50%)	SMILES
+ (+ = 0 μM ≤ SC150 < 0.05 μM)	NS(=O)(=O)c1ccc(NCC#Cc2cc3c(N[C@H]4CC[C@H](N5CC6(CCOCC6)C5)CC4)cccc3n2CC(F)(F)F)c(OCF)c1 [Compound 316A, 3-(fluoromethoxy)-4-{[3-(4-{[(1R,4R)-4-{7-oxa-2-azaspiro[3.5]nonan-2-yl}cyclo-hexyl]amino}-1-(2,2,2-trifluoroethyl)-1H-indol-2-yl)prop-2-yn-1-yl]amino}benzene-1-sulfonamide]
+ (+ = 0 μM ≤ SC150 < 0.05 μM)	COc1cc(S(C)(=O)=O)ccc1NCC#Cc1cc2c(N[C@@H]3CCN4CCC[C@H]4C3)cccc2n1CC(F)(F)F [Compound 764A, N-[(7R,8aS)-octahydroindolizin-7-yl]-2-{3-[(4-methanesulfonyl-2-methoxyphfenyl)amino]prop-1-yn-1-yl}-1-(2,2,2-trifluoroethyl)-1H-indol-4-amine]
+ (+ = 0 μM ≤ SC150 < 0.05 μM)	CCNC(=O)c1ccc(NCC#Cc2cc3c(NC4CCN(CC(O)COC)CC4)cccc3n2CC(F)(F)F)c(OC)c1 (centres unmarked) [Compound 655A, N-ethyl-4-{[3-(4-{[1-(2-hydroxy-3-methoxypropyl)piperidin-4-yl]amino}-1-(2,2,2-trifluoroethyl)-1H-indol-2-yl)prop-2-yn-1-yl]amino}-3-methoxybenzamide]
+ (+ = 0 μM ≤ SC150 < 0.05 μM)	NS(=O)(=O)c1ccc(NCC#Cc2cc3c(N[C@H]4CC[C@H](N5CCOCC5)CC4)cccc3n2CC(F)(F)F)c(OCF)c1 [Compound 344A, 3-(fluoromethoxy)-4-{[3-(4-{[(1R,4R)-4-(morpholin-4-yl)cyclohexyl]amino}-1-(2,2,2-trifluoroethyl)-1H-indol-2-yl)prop-2-yn-1-yl]amino}benzene-1-sulfonamide]
+ (+ = 0 μM ≤ SC150 < 0.05 μM)	CCCn1c(C#CCNc2ccc(S(C)(=O)=O)cc2OC)cc2c(N[C@H]3CCN(C[C@@H](O)COC)C[C@H]3F)cccc21 (racemic) [Compound 884A]
+ (+ = 0 μM ≤ SC150 < 0.05 μM)	COc1cc(S(=O)(=O)N2CCN(C(C)=O)CC2)ccc1NCC#Cc1cc2c(NC3CCN(C)CC3)cccc2n1CC(F)(F)F [Compound 479A]
+ (+ = 0 μM ≤ SC150 < 0.05 μM)	COc1cc(S(C)(=O)=O)ccc1NCC#Cc1cc2c(NC3CCC(=O)CC3)cccc2n1CC(F)(F)F [Compound 66A, 4-[(2-{3-[(4-methane-sulfonyl-2-methoxy-phenyl)amino]prop-1-yn-1-yl}-1-(2,2,2-trifluoroethyl)-1H-indol-4-yl)amino]cyclo-hexan-1-one]
+ (+ = 0 μM ≤ SC150 < 0.05 μM)	CC(O)CN1CCC(Nc2cccc3c2cc(C#CCNc2ccc(S(C)(=O)=O)cc2OCC#N)n3CC(F)(F)F)CC1 (centres unmarked) [Compound 661A, 2-(2-{[3-(4-{[1-(2-hydroxypropyl)piperidin-4-yl]amino}-1-(2,2,2-trifluoroethyl)-1H-indol-2-yl)prop-2-yn-1-yl]amino}-5-methanesulfonylphenoxy)acetonitrile]
